These results are taken from US20260053932A1, “COMPOUNDS AND METHODS FOR THE TARGETED DEGRADATION OF ANDROGEN RECEPTOR AND ASSOCIATED METHODS OF USE” (Arvinas Operations, Inc., priority 2020, published 2026).

SMILES strings stand for the structures.

In the first experiment the test system is androgen receptor (AR) in LNCaP and/or VCaP cells. Put plainly: Androgen Receptor ELISA assay (AR degradation). The format is cell-based. Conditions: LNCaP and/or VCaP cells; 5 hours incubation; media with R1881; read-out: DC50 Code* (degradation of AR ELISA). The essentials: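 VCaP cells grown ≥3 days, then treated 5 h with compound in media containing 1 nM R1881 (10× stock). Cells lysed and AR quantified by sandwich ELISA (mouse AR detection Ab, HRP anti-mouse, TMB). DC50 and Dmax derived from AR degradation.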
A general note: ELISA stands for enzyme-linked immunosorbent assay.
For orientation: DC50 means the concentration at which degradation of the target reaches its halfway point. With `COc1cc(O[C@H]2CC[C@H](NC(=O)c3cnc(N4CCC(CN(C(C)C)[C@H]5C[C@H](Oc6ccc7c(c6)C(=O)N(C6CCC(=O)NC6=O)C7=O)C5)CC4)cn3)CC2)ccc1C#N` (some centres unmarked) [Compound 32, N-((1r,4r)-4-(4-cyano-3-methoxyphenoxy)cyclohexyl)-5-(4-((((1r,3r)-3-((2-(2,6-dioxopiperidin-3-yl)-1,3-dioxoisoindolin-5-yl)oxy)cyclobutyl) (isopropyl)amino)methyl)piperidin-1-yl)pyrazine-2-carboxamide], the DC50 was less than 1 nM. Still for that read-out and setting: the figure for `CC(C)N(CC1CCN(c2cnc(C(=O)N[C@H]3CC[C@H](Oc4ccc(C#N)c(Cl)c4)CC3)cn2)CC1)[C@H]1C[C@H](Oc2ccc3c(c2)C(=O)N([C@@H]2C(=O)NC(=O)C[C@@H]2C)C3=O)C1` [Compound 76, N-((1r,4r)-4-(3-chloro-4-cyanophenoxy)cyclohexyl)-5-(4-((isopropyl((1S,3r)-3-((2-((3S,4S)-4-methyl-2,6-dioxopiperidin-3-yl)-1,3-dioxoisoindolin-5-yl)oxy)cyclobutyl)amino)methyl)piperidin-1-yl)pyrazine-2-carboxamide] is greater than 100 nM. As for `COc1cc(O[C@H]2CC[C@H](NC(=O)c3cnc(N4CCC(CN(C(C)C)[C@H]5C[C@H](Oc6ccc7c(c6)C(=O)N(C6CCC(=O)NC6=O)C7)C5)CC4)cn3)CC2)ccc1C#N` (some centres unmarked) [Compound 34, N-((1r,4r)-4-(4-cyano-3-methoxyphenoxy)cyclohexyl)-5-(4-((((1r,3r)-3-((2-(2,6-dioxopiperidin-3-yl)-3-oxoisoindolin-5-yl)oxy)cyclobutyl) (isopropyl)amino)methyl)piperidin-1-yl)pyrazine-2-carboxamide], the DC50 is less than 1 nM.

With `COCCN(CC1CCN(c2cnc(C(=O)N[C@H]3CC[C@H](Oc4ccc(C#N)c(Cl)c4)CC3)cn2)CC1)[C@H]1C[C@H](Oc2ccc3c(c2)C(=O)N(C2CCC(=O)NC2=O)C3)C1` (some centres unmarked) [Compound 24, N-((1r,4r)-4-(3-chloro-4-cyanophenoxy)cyclohexyl)-5-(4-((((1r,3r)-3-((2-(2,6-dioxopiperidin-3-yl)-3-oxoisoindolin-5-yl)oxy)cyclobutyl)(2-methoxyethyl)amino)methyl)piperidin-1-yl)pyrazine-2-carboxamide], the DC50 was less than 1 nM.

Staying with this experiment, now noted: degradation of AR ELISA in LNCaP and/or VCaP cells; Table 2C; read-out: DC50 Code*.
In the case of `CC1(C)[C@H](NC(=O)c2ccc(N3CC4CN(CC5CCN(c6ccc7c(c6)C(=O)N(C6CCC(=O)NC6=O)C7=O)CC5)CC4C3)cc2)C(C)(C)[C@H]1Oc1ccc(C#N)c(Cl)c1` (some centres unmarked) [compound 107, N-((1r,3r)-3-(3-chloro-4-cyanophenoxy)-2,2,4,4-tetramethylcyclobutyl)-4-(5-((1-(2-(2,6-dioxopiperidin-3-yl)-1,3-dioxoisoindolin-5-yl)piperidin-4-yl)methyl)hexahydropyrrolo [3,4-c]pyrrol-2(1H)-yl)benzamide], the DC50 was less than 1 nM.

Take `CC(C)N(C[C@H]1C2CN(c3ncc(C(=O)N[C@H]4C(C)(C)[C@H](Oc5ccc(C#N)c(Cl)c5)C4(C)C)cn3)C[C@H]21)[C@H]1C[C@H](Oc2ccc3c(c2)C(=O)N(C2CCC(=O)NC2=O)C3=O)C1` (stereo partly drawn) [compound 92, N-((1r,3S)-3-(3-chloro-4-cyanophenoxy)-2,2,4,4-tetramethylcyclobutyl)-2-((1S,5S)-6-((((1r,3S)-3-((2-(2,6-dioxopiperidin-3-yl)-1,3-dioxoisoindolin-5-yl)oxy)cyclobutyl) (isopropyl)amino)methyl)-3-azabicyclo[3.1.0]hexan-3-yl)pyrimidine-5-carboxamide]: the DC50 is less than 1 nM. `CCN(CC1CCN(c2ccc(C(=O)N[C@H]3C(C)(C)[C@H](Oc4cc(C)c(C#N)c(C)c4)C3(C)C)cc2)CC1)[C@H]1C[C@H](Oc2ccc3c(c2)C(=O)N(C2CCC(=O)NC2=O)C3=O)C1` (some centres unmarked) [compound 168, N-((1r,3r)-3-(4-cyano-3,5-dimethylphenoxy)-2,2,4,4-tetramethylcyclobutyl)-4-(4-((((1r,3r)-3-((2-(2,6-dioxopiperidin-3-yl)-1,3-dioxoisoindolin-5-yl)oxy)cyclobutyl) (ethyl)amino)methyl)piperidin-1-yl) benzamide]: the DC50 was less than 1 nM. For `COCCN(CC1CCN(c2ncc(C(=O)N[C@H]3C(C)(C)[C@H](Oc4cc(C)c(C#N)c(C)c4)C3(C)C)cn2)CC1)[C@H]1C[C@H](Oc2ccc3c(c2)C(=O)N(C2CCC(=O)NC2=O)C3=O)C1` (some centres unmarked) [compound 91, N-((1r,3r)-3-(4-cyano-3,5-dimethylphenoxy)-2,2,4,4-tetramethylcyclobutyl)-2-(4-((((1r,3r)-3-((2-(2,6-dioxopiperidin-3-yl)-1,3-dioxoisoindolin-5-yl)oxy)cyclobutyl)(2-methoxyethyl)amino)methyl)piperidin-1-yl)pyrimidine-5-carboxamide], the half-maximal degradation concentration (DC50) is less than 1 nM. For `COc1cc(O[C@H]2C[C@H](N(CC(F)F)CC3CCN(c4cnc(C(=O)N[C@H]5C(C)(C)[C@H](Oc6ccc(C#N)c(Cl)c6)C5(C)C)cn4)CC3)C2)cc2c1C(=O)N(C1CCC(=O)NC1=O)C2=O` (some centres unmarked) [compound 137, N-((1r,3r)-3-(3-chloro-4-cyanophenoxy)-2,2,4,4-tetramethylcyclobutyl)-5-(4-(((2,2-difluoroethyl)((1r,3r)-3-((2-(2,6-dioxopiperidin-3-yl)-7-methoxy-1,3-dioxoisoindolin-5-yl)oxy)cyclobutyl)amino)methyl)piperidin-1-yl)pyrazine-2-carboxamide], the DC50 was in the range of 10 to 100 nM. For `COc1cc(O[C@H]2C[C@H](N(C)CC3CCN(c4ccc(C(=O)N[C@H]5C(C)(C)[C@H](Oc6cc(C)c(C#N)c(C)c6)C5(C)C)cc4)CC3)C2)cc2c1C(=O)N(C1CCC(=O)NC1=O)C2=O` (mixture of isomers) [compound 191, rac-N-((1r,3r)-3-(4-cyano-3,5-dimethylphenoxy)-2,2,4,4-tetramethylcyclobutyl)-4-(4-((((1r,3r)-3-((2-(2,6-dioxopiperidin-3-yl)-7-methoxy-1,3-dioxoisoindolin-5-yl)oxy)cyclobutyl) (methyl)amino)methyl)piperidin-1-yl)benzamide], the DC50 is less than 1 nM. Regarding `CC1(C)[C@H](NC(=O)c2ccc(N3CCN([C@H]4CC[C@H](Oc5ccc6c(c5)C(=O)N(C5CCC(=O)NC5=O)C6=O)C4)CC3)cc2)C(C)(C)[C@H]1Oc1ccc(C#N)c(Cl)c1` (stereo partly drawn) [compound 125, N-((1r,3S)-3-(3-chloro-4-cyanophenoxy)-2,2,4,4-tetramethylcyclobutyl)-4-(4-((1S,3S)-3-((2-(2,6-dioxopiperidin-3-yl)-1,3-dioxoisoindolin-5-yl)oxy)cyclopentyl)piperazin-1-yl)benzamide], the DC50 is less than 1 nM. Regarding `CC1(C)[C@H](NC(=O)c2cnc(N3CCC(CN(CCN4CCOCC4)[C@H]4C[C@H](Oc5ccc6c(c5)C(=O)N(C5CCC(=O)NC5=O)C6=O)C4)CC3)cn2)C(C)(C)[C@H]1Oc1ccc(C#N)c(Cl)c1` (some centres unmarked) [compound 237, N-((1r,3r)-3-(3-chloro-4-cyanophenoxy)-2,2,4,4-tetramethylcyclobutyl)-5-(4-((((1r,3r)-3-((2-(2,6-dioxopiperidin-3-yl)-1,3-dioxoisoindolin-5-yl)oxy)cyclobutyl)(2-morpholinoethyl)amino)methyl)piperidin-1-yl)pyrazine-2-carboxamide], the 50% degradation concentration (DC50) lay in the range of 1 to 10 nM. As for `Cc1cc(O[C@H]2C(C)(C)[C@H](NC(=O)c3ccc(N4CCC(CN(C)[C@H]5CC[C@H](Oc6ccc7c(c6)C(=O)N(C6CCC(=O)NC6=O)C7=O)C5)CC4)cc3)C2(C)C)cc(C)c1C#N` (stereo partly drawn) [compound 154, N-((1r,3S)-3-(4-cyano-3,5-dimethylphenoxy)-2,2,4,4-tetramethylcyclobutyl)-4-(4-((((1S,3S)-3-((2-(2,6-dioxopiperidin-3-yl)-1,3-dioxoisoindolin-5-yl)oxy)cyclopentyl) (methyl)amino)methyl)piperidin-1-yl)benzamide], the DC50 is less than 1 nM. Still for that read-out and setting: the figure for `Cc1cc(O[C@H]2C(C)(C)[C@H](NC(=O)c3ccc(N4CCC(O[C@H]5C[C@H](Oc6ccc7c(c6)C(=O)N(C6CCC(=O)NC6=O)C7=O)C5)CC4)cc3)C2(C)C)cc(C)c1C#N` (mixture of isomers) [compound 178, N-((1r,3r)-3-(4-cyano-3,5-dimethylphenoxy)-2,2,4,4-tetramethylcyclobutyl)-4-(4-((1r,3r)-3-((2-(2,6-dioxopiperidin-3-yl)-1,3-dioxoisoindolin-5-yl)oxy)cyclobutoxy)piperidin-1-yl)benzamide] is less than 1 nM; for `Cc1cc(O[C@H]2C(C)(C)[C@H](NC(=O)c3ccc(CN4CCOC[C@@H]4CN(C)[C@H]4C[C@H](Oc5ccc6c(c5)C(=O)N(C5CCC(=O)NC5=O)C6=O)C4)cc3)C2(C)C)cc(C)c1C#N` (stereo partly drawn) [compound 151, N-((1r,3S)-3-(4-cyano-3,5-dimethylphenoxy)-2,2,4,4-tetramethylcyclobutyl)-4-(((3S)-3-((((1r,3S)-3-((2-(2,6-dioxopiperidin-3-yl)-1,3-dioxoisoindolin-5-yl)oxy)cyclobutyl) (methyl)amino)methyl)morpholino)methyl) benzamide] it is less than 1 nM; for `COc1cc(O[C@H]2C[C@H](N(CC3CCN(c4cnc(C(=O)N[C@H]5C(C)(C)[C@H](Oc6ccc(C#N)c(Cl)c6)C5(C)C)cn4)CC3)C(C)C)C2)cc2c1C(=O)N(C1CCC(=O)NC1=O)C2=O` (some centres unmarked) [compound 124, N-((1r,3r)-3-(3-chloro-4-cyanophenoxy)-2,2,4,4-tetramethylcyclobutyl)-5-(4-((((1r,3r)-3-((2-(2,6-dioxopiperidin-3-yl)-7-methoxy-1,3-dioxoisoindolin-5-yl)oxy)cyclobutyl) (isopropyl)amino)methyl)piperidin-1-yl)pyrazine-2-carboxamide] it is less than 1 nM. On the same count and under the same terms, the figure for `Cc1cc(O[C@H]2C(C)(C)[C@H](NC(=O)c3ccc(CN4CCOC[C@@H]4CN(C)[C@H]4C[C@H](Oc5ccc6c(c5)C(=O)N(C5CCC(=O)NC5=O)C6=O)C4)cc3)C2(C)C)cc(C)c1C#N` (stereo partly drawn) [compound 148, N-((1r,3R)-3-(4-cyano-3,5-dimethylphenoxy)-2,2,4,4-tetramethylcyclobutyl)-4-(((3R)-3-((((1r,3R)-3-((2-(2,6-dioxopiperidin-3-yl)-1,3-dioxoisoindolin-5-yl)oxy)cyclobutyl) (methyl)amino)methyl)morpholino)methyl) benzamide] is less than 1 nM.
